From patent US11912678B2, “LRRK2 inhibiting compounds and use thereof for treating neurodegenerative diseases” (CONSEJO SUPERIOR DE INVESTIGACIONES CIENTÍFICAS, priority 2018, dated 2024)

Legend:
[1] = in vitro; conditions: PAMPA; for Pe (10−6 cm s−1) / Papp at 2.5 h: pig, pH 7.4; for Pe (10−6 cm s−1): 2.5 h
Excerpt: The above-referenced commercial compounds, phosphate buffer at pH=7.4 (PBS), Ethanol and dodecane were obtained from the commercial houses Sigma, Acros organics, Merck, Aldrich and Fluka, respectively. […] To filter the samples, PVDF membrane filters were used (30 mm diameter, 0.45 μm pore size) from the company Symta. The equipment used to measure UV absorbance in 96-well plates was a Thermoscientific Multiskan spectrum.
Ten reference compounds were selected, whose blood-brain barrier passage is known, in order to validate the experiment. […] The solutions were filtered. Next, 180 μL of a PBS/EtOH (70/30) solution were added to each well of the acceptor plate. The donor plate was impregnated with 4 μL of a pig brain lipid solution dissolved in dodecane (20 mg mL^−1). After 5 minutes, 180 μL of solution of each compound were added on this plate. Of the compounds whose penetration in the central nervous system is being evaluated, between 1-2 mg were taken and dissolved in 1,500 μL of EtOH and 3,500 μL of PBS phosphate buffer (pH=7.4), filtered and added to the 96-well donor plate. Next, the donor plate was placed on top of the acceptor plate forming a kind of “sandwich” and left to incubate for 2 h and 30 min at 25° C. The passive transport compounds pass from the donor plate through the pig brain lipid to the acceptor plate. After 2 h and 30 min, the donor plate is carefully removed. The concentration and absorbance of both the commercial compounds and the synthesised derivatives that were evaluated in the acceptor and donor plates were determined using a UV absorbance reader. Each sample was analysed at 2 to 5 wavelengths, in at least three wells and in two independent experiments. […] Ten reference commercial compounds whose penetration in the central nervous system is known were used in each experiment in order to validate the method.

[2] = molecular target: LRRK2 G2019S (Homo sapiens (Human), UniProt Q5S007, G2019S); experiment: Inhibition of LRRK2 G2019S (Adapta kinase assay); format: biochemical; conditions: Adapta method, 60 min kinase reaction
Chain of LRRK2 G2019S (Q5S007 whole entry G2019S): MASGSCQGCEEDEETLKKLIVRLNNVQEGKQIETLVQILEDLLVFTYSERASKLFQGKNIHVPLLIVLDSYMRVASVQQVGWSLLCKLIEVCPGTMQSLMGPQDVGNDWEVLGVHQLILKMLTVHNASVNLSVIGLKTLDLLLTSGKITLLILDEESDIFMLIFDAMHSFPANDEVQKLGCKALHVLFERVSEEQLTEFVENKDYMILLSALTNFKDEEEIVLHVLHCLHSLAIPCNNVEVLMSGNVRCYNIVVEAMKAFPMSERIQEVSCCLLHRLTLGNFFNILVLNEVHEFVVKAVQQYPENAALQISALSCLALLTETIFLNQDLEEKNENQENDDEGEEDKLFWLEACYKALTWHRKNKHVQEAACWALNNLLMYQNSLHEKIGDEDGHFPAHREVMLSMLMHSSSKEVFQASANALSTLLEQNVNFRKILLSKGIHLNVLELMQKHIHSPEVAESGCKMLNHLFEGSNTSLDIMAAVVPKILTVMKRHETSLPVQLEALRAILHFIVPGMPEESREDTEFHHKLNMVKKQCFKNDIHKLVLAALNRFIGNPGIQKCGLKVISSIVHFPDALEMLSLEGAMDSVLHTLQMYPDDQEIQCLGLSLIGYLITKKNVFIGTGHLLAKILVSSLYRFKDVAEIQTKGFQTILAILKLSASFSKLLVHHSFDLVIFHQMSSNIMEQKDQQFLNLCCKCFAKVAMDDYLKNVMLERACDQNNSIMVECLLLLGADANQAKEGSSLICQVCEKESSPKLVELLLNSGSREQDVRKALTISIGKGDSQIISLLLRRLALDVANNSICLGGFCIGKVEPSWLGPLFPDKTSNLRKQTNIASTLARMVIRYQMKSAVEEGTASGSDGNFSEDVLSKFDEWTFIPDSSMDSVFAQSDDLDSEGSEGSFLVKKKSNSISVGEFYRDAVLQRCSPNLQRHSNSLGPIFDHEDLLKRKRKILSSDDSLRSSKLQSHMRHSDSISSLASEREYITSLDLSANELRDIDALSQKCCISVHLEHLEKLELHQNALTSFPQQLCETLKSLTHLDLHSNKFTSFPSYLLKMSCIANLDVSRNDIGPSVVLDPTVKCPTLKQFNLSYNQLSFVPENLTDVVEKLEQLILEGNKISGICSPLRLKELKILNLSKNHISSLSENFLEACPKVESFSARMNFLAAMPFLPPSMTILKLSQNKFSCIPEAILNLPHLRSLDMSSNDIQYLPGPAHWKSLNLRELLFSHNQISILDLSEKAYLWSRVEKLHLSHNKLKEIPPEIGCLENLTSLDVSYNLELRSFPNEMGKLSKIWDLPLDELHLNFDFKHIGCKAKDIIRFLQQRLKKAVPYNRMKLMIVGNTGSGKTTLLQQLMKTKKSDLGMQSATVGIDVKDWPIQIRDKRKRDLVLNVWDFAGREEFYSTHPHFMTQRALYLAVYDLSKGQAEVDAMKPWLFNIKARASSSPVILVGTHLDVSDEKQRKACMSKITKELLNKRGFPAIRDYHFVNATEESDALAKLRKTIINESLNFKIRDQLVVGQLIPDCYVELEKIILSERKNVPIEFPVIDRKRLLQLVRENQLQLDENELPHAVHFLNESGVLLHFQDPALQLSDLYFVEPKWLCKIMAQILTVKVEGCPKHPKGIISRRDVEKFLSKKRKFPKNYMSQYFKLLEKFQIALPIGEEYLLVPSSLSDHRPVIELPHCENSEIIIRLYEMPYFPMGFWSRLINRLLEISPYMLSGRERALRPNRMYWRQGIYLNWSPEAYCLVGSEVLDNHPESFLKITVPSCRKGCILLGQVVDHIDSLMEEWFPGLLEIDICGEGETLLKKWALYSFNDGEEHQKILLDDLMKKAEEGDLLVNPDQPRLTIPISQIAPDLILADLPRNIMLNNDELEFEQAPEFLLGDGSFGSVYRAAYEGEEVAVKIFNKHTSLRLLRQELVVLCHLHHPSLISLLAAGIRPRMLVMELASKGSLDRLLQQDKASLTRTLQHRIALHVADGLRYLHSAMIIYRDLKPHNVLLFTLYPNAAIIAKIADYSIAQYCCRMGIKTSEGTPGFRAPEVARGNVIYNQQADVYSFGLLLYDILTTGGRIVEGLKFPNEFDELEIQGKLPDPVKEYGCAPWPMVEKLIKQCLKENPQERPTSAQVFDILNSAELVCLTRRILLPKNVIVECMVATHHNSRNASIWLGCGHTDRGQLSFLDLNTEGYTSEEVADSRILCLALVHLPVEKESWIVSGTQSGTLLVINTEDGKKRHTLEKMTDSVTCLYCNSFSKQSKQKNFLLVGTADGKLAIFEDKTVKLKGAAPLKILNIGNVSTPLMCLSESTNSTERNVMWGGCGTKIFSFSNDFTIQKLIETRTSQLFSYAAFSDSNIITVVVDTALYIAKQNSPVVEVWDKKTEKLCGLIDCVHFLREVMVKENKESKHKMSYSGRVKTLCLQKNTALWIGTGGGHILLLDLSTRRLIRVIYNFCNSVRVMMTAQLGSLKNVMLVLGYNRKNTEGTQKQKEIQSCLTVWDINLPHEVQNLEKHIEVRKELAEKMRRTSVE
Protocol: (§1) The compounds were evaluated in LRRK2 and in the mutated form LRRK2 G2019S. This mutation is more frequent in the familial forms of Parkinson's Disease and has a significant increase in kinase activity. The experimental determination of the inhibition of both enzymes was carried out using the Adapta® method, which is an evaluation method of fluorescent kinase activity that determines ADP in a highly sensitive manner. The methodology can be divided into two stages: kinase reaction and ADP determination. In the first stage, all the components for the kinase reaction are added to the well and incubated for 60 min. After the reaction, the ADP detection solution which contains a Europium-labeled anti-ADP antibody (Alexa Fluor® 647 labeled ADP tracer) and EDTA, to stop the kinase reaction, are added to the reaction well. The ADP formed in the kinase reaction without inhibitor will displace the Alexa Fluor® 647 labeled ADP tracer of the antibody, resulting in the TR-FRET signal decrease.
(§2) The assay is performed in 384-well plates. Adding 100 nL of the solution with the compound to be evaluated in 1% DMSO, 2.4 μL of HEPES solution, 2.5 μL of ATP solution, […] of substrate solution. The 10 μl of the kinase reaction contain: […] LRRK2 and 200 μM ERM (LRRKtide) in 25 mM Tris/7.5 mM HEPES pH 8.2, 0.005% BRIJ-35, 5 mM MgCl2, 0.5 mM EGTA, 0.01% NaN3 or 3-12 ng LRRK2 G2019S and 200 μM ERM (LRRKtide) in 25 mM Tris/7.5 mM HEPES pH 8.2, 0.005% BRIJ-35, 5 mM MgCl2, 0.5 mM EGTA, 0.01% NaN3. The plate is stirred for 30 s on a stirring plate and centrifuged for 1 min in a centrifuge at 1,000×g. The reaction is incubated at room temperature for 60 min. After this time period, 5 μL of the detection mixture is added, the plate is stirred for 30 s on a stirring plate and centrifuged for 1 min at 1,000×g. Fluorescence is determined in a plate reader and the data are analysed.

[3] = system: human neuronal line SH-SY5Y; experiment: Neuroprotection against okadaic acid-induced tau hyperphosphorylation (MTT); format: cell-based; conditions: compounds 1, 5 and 10 μM pre-incubated 1 hour, OA 30 nM 24 hours
Protocol: The neuroprotective potential of the compounds was evaluated in an okadaic acid (OA)-induced neurodegeneration cell model. OA is an inhibitor of phosphatase 1 and 2 and is normally used to induce tau hyperphosphorylation in different cell lines. In this case, the human neuronal line SH-SY5Y is used. The cells are cultured in DMEM medium supplemented with 10% FBS and 1% penicillin/streptomycin at 37° C. and in an incubator with 5% CO2. The SH-SY5Y cells are sown on a 96-well plate at a density of 60,000 cells per well for 48 hours. After this time period, the cells are pre-incubated with the compounds to be studied at a concentration of 1, 5 and 10 μM for 1 hour. After that time period, OA is added at a concentration of 30 nM, letting the plate incubate for a further 24 hours. Next, the cells were incubated with an MTT solution at 0.5 mg·mL^−1 for at least 4 hours at 37° C. and 5% CO2. Next, the culture medium is removed and the formazan crystals joined to the base of the plate are dissolved with 200 μL of DMSO. Lastly, UV absorbance was measured at 595 nm in a plate reader (Varioskan Flash Microplate reader, Thermo Scientific).

[4] = molecular target: LRRK2 (Homo sapiens (Human), UniProt Q5S007); experiment: Inhibition of LRRK2 (Adapta kinase assay); format: biochemical; conditions: Adapta method, 60 min kinase reaction
Chain of LRRK2 (Q5S007 whole entry): as the sequence (Q5S007 whole entry G2019S) above, with S2019G counted along it
Protocol: as §1, §2

Compound | Blood-brain barrier penetration by passive diffusion [1] | Pe (10−6 cm s−1) [1] | IC50 [2] [nM] | Neuroprotection against okadaic acid damage / tau hyperphosphorylation [3] | IC50 [4] [nM] | Prediction of penetration in the central nervous system (CNS) [1] | Papp at 2.5 h [1] [×10⁻⁶ cm/s]
O=C(Nc1nc2ccccc2s1)c1ccc(N2CCOCC2)cc1 [Compound 1, N-(benzothiazole-2-yl)-4-morpholinobenzamide] | capable of penetrating the blood-brain barrier by passive diffusion | 13.4 ± 2.4 10−6 cm s−1 | 360 | prevents the damage caused by the okadaic acid | 696 | – | –
COc1ccc2nc(NC(=O)c3ccc(N4CCOCC4)cc3)sc2c1 [Compound 2, N-(6-methoxybenzothiazole-2-yl)-4-morpholinobenzamide] | – | – | 108 | prevents the damage caused by the okadaic acid | 368 | – | –
O=C(Nc1nc2ccc(C(F)(F)F)cc2s1)c1ccc(N2CCOCC2)cc1 [Compound 3, N-(6-trifluoromethylbenzothiazole-2-yl)-4-morpholinobenzamide] | – | – | 293 | prevents the damage caused by the okadaic acid | 1060 | – | –
Cc1ccc2nc(NC(=O)c3ccc(N4CCOCC4)cc3)sc2c1 [Compound 4, N-(6-methylbenzothiazole-2-yl)-4-morpholinobenzamide] | capable of penetrating the blood-brain barrier by passive diffusion | 19.0 ± 2.6 10−6 cm s−1 | 332 | prevents the damage caused by the okadaic acid | 523 | – | –
O=C(Nc1nc2ccc(Cl)cc2s1)c1ccc(N2CCOCC2)cc1 [Compound 5, N-(6-chlorobenzothiazole-2-yl)-4-morpholinobenzamide] | – | – | – | prevents the damage caused by the okadaic acid | 777 | CNS+/− | 3.42 ± 1.26
O=C(Nc1nc2ccc(F)cc2s1)c1ccc(N2CCOCC2)cc1 [Compound 6, N-(6-fluorobenzothiazole-2-yl)-4-morpholinobenzamide] | capable of penetrating the blood-brain barrier by passive diffusion | 5.1 ± 0.1 10−6 cm s−1 | 426 | prevents the damage caused by the okadaic acid | 190 | – | –
CCOc1ccc2nc(NC(=O)c3ccc(N4CCOCC4)cc3)sc2c1 [Compound 7, N-(6-ethoxybenzothiazole-2-yl)-4-morpholinobenzamide] | – | – | 158 | prevents the damage caused by the okadaic acid | 308 | – | –
O=C(Nc1nc2ccc(Br)cc2s1)c1ccc(N2CCOCC2)cc1 [Compound 8, N-(6-bromobenzothiazole-2-yl)-4-morpholinobenzamide] | – | – | 1380 | prevents the damage caused by the okadaic acid | 474 | – | –
CCCOc1ccc2nc(NC(=O)c3ccc(N4CCOCC4)cc3)sc2c1 [Compound 9, N-(6-propoxybenzothiazole-2-yl)-4-morpholinobenzamide] | – | – | 1190 | prevents the damage caused by the okadaic acid | 4000 | – | 4.28 ± 3.45
CC(C)c1ccc2nc(NC(=O)c3ccc(N4CCOCC4)cc3)sc2c1 [Compound 10, N-(6-isopropylbenzothiazole-2-yl)-4-morpholinobenzamide] | – | – | 1170 | prevents the damage caused by the okadaic acid | 1950 | – | 4.27 ± 2.7
CN1C(C(=O)Nc2ccccn2)=C(O)c2ccccc2S1(=O)=O [Piroxicam, reference compound] | – | 0.6 ± 0.2 10−6 cm s−1 | – | – | – | – | –
CN(C)CCCN1c2ccccc2Sc2ccccc21 [Promazine, reference compound] | – | 9.8 ± 0.5 10−6 cm s−1 | – | – | – | – | –
